Consider five compounds from US5321035A, “Piperidine derivatives and process for preparation thereof” (Shionogi & Co., Ltd., priority 1992, dated 1994).

pIC50: −log10 of the molar value.

The test system of series [1] is hippocampus CAI pyramidal cells. The series is described as follows: Inhibitory effect against delayed necrosis of hippocampus pyramidal cells after cerebral ischemia (bilateral common carotid artery ligation). The format is in vivo, Mongolian gerbil. The conditions noted are these: for injury (%) in pyramidal cell layer: 30 min before 5 min occlusion, 4th day; for inhibition (%) of injury: vs control. The protocol:
Inhibitory effect against the delayed necrosis of hippocampus CAI pyramidal cells was determined.
Compound (a) and compound (b) were again used in this experiment. Three to eight male mice (Mongolian gerbil, 11 to 12-week-old, Seiwa Jikken-dobutsuKenkyusyo) were used for one group.
Each animal was intraperitoneally administered a solution of the test compound (a) or (b) dissolved in distilled water, or only distilled water (for control) at 0.2 ml/100 g weight of the animal. Thirty minutes later, under the halothane anesthesia, bilateral common carotid artery was separated from surrounding tissues and ligated for a period of 5 min with Sugita's artery Klemme. Anesthesia was stopped at the time of artery occlusion. On the 4th day after the operation, each animal was anesthetized with pentobarbital Na (45 mg/kg), and brain was perfused with 4% paraformaldehyde solution and removed. From the brain was prepared a piece of cerebral preparation containing hippocampus. It was placed in Carnoy's fixative overnight for fixation and embedded in paraffin, from which sliced coronal preparations of 10 μm thick were prepared. Each cerebral preparation was stained with hematoxylin-eosin and the rate of injury (%) in pyramidal cell layer extending from paramedian to CA4 was observed using two-dimensional image analyzer (Cosmozon IS, Nicon).

Series [2] concerns 7-alkoxycumarin-O-dialkylase. The series is described as follows: Enzyme Induction Test (liver microsomal 7-alkoxycumarin-O-dialkylase activities after repeated dosing). The format is in vivo, mouse (male, DS). The protocol: Male mice (DS, 5-6 week-old) received intraperitoneally 100 mg/kg of the compound (a) of the present invention or the compound (c) (1-[3-}4-(3,4,-dichlorophenyl)-1,2,5,6-tetrahydropiperidin-1-yl}propylcarbamoyl]-2-oxopyrrolidine) suspended in 5% gum arabic once a day for three days. After 24 hrs from the final administration, the liver was removed from the animal, and liver microsome was prepared by means of centrifugal fractionation. Additional liver microsomes were prepared in the same manner as above by intraperitoneally administering a typical enzyme inducer, phenobarbital (dissolved in saline) or β-naphthoflavone (suspended in sesame oil), to mice. Enzymatic activities of the above liver microsomes on drug metabolism were evaluated by determining their 7-alkoxycumarin-O-dialkylase activities.
(In general: Microsomes from liver hold many membrane-bound enzymes, among them those of drug oxidation.)

Series [3] concerns [3H]5-HT uptake by synaptosomes. The series is described as follows: {3H} Serotonin (5-HT) Uptake Inhibition Test in brain synaptosomes. The format is biochemical, rat (male Slc: Wistar strain). The conditions noted are these: for pIC50: 5 nM [3H]5-HT, 5 min at 37° C, rat brain synaptosomes. An excerpt: (1) Evaluation of Effects on Neurotransmittal Systems {^3 H} Serotonin (5-HT) Uptake Inhibition Test
Compound (a): a compound of the present invention
Compound (b): 1-[3-{4-(3,4-dichlorophenyl)-piperidin-1-yl}propylcarbamoyl]-2-oxopyrrolidin (Japanese Patent Publication (KOKAI) No.131155/1989).
Male Slc: Wistar strain rats (12-week-old, Japan SLC).
Rats were killed by decapitation and a whole brain except for cerebellum is isolated immediately. The isolated tissue was homogenized in 20 volume of ice-cold 0.32 M sucrose solution by Potter-type homogenizer and centrifuged at 1,000× g for 10 min. The supernatant is centrifuged at 40,000× g for 20 min. The resultant pellet is resuspended in 20 volume of Krebs-Henseleit buffer containing 1 mM ascorbate, 0.17 mM EDTA and 0.08 mM pargyline by Polytron and centrifuged at 40,000× g for 10 min, which procedure was repeated two more times. The finally obtained pellet was resuspended in 20 volume of ice-cold Krebs-Henseleit buffer using Polytron. The resultant suspension was diluted to 1/10 with the same buffer to give a synaptosome sample.
A mixture of 5 nM [^3 H]5-HT (10 μl), synaptosome sample (480 μl ) and a solution (10 μl ) containing a test compound at a predetermined concentration was incubated for 5 min at 37° C. The reaction was stopped by diluting the mixture with ice-cold Krebs-Henseleit buffer (2.5 ml) and filtering with suction on Whatman GF/C paper. The filter paper was washed three times with ice-cold Krebs-Henseleit buffer (2.5 ml each) and allowed to stand for about 18 hr in Cleasol-1 solution (5 ml). The radioactivity was then measured by means of a liquid scintillation counter. A control experiment was carried out in the same manner as the above using 5 nM [^3 H]5-HT (10 μl ), synaptosome sample (480 μl ) and a solvent (10 μl ) used for dissolving a test compound to obtain blank values of radioactivity. […]

[4] abbreviates: mouse, in vivo, ip, 100 mg/kg, 1440 min.
Setting [5] is: i.p., compounds (a), (c): 100 mg/kg once a day for three days, control = 1.00.
[6] abbreviates: i.p., compounds (a), (c): 100 mg/kg once a day for three days, liver microsomes.
Where [7] appears, read: three days, compared with the control.

A word on the pIC50: it is the IC50 on a negative log10 scale, so that one unit is a factor of ten. The low end stands for a large IC50, the high end for a small IC50.

On to `O=C1CCCN1C(=O)NCCCN1CCC(c2ccc(Cl)c(Cl)c2)CC1` [Compound (a), 1-[3-{4-(3,4-Dichlorophenyl)piperidin-1-yl}-propylcarbamoyl]-2-oxopyrrolidine], for which, in series [1] (12.5 mg/kg i.p.), the “injury (%) in pyramidal cell layer” value stood at 45.9 ± 2.1% and the “inhibition (%) of injury” value was “+8.0%”. In addition, in series [1] (25.0 mg/kg i.p.), the “injury (%) in pyramidal cell layer” value came out at 33.6 ± 5.3% and the “inhibition (%) of injury” value is “+32.7%”. Moreover, in series [1] (50 mg/kg i.p.), the “inhibition of delayed necrosis of hippocampus CAI pyramidal cells (in words)” value is “completely inhibited”. Also, in series [1] (50.0 mg/kg i.p.), the “injury (%) in pyramidal cell layer” value came out at 0% and the “inhibition (%) of injury” value is on record as “+100%”. The “inhibition of delayed necrosis of hippocampus CAI pyramidal cells (in words)” value in series [1] (12.5 and 25 mg/kg i.p.) is reported as “significantly inhibited”. Moreover, the “enzyme induction (in words)” value in series [2] (mouse, in vivo) is on record as “no enzyme induction was observed”. In addition, in series [2] (mouse, in vivo, ip, 100 mg/kg), the “deethylation activity (7-alkoxycumarin-O-dialkylase)” value was 2.59 ± 0.27 nmol/min/mg of microsome protein, the “demethylation activity (7-alkoxycumarin-O-dialkylase)” value is on record as 2.79 ± 0.33 nmol/min/mg of microsome protein and the “depropylation activity (7-alkoxycumarin-O-dialkylase)” value was 1.08 ± 0.12 nmol/min/mg of microsome protein. In addition, in series [2] (setting [4]), the “deethylation activity, ratio to control (in parentheses)” value (from here on “deethylation activity, ratio to control”) is listed as 0.98; the “demethylation activity, ratio to control (in parentheses)” value (“demethylation activity, ratio” below) was determined as 1.08; the “depropylation activity, ratio to control (in parentheses)” value (“depropylation activity, ratio” below) is 0.89. In addition, the pIC50 in series [3] was 6.89. In series [3] (compared to compound (b)), the “serotonin uptake inhibitory activity (in words)” value is listed as “much more potent serotonin uptake inhibitory activity”.
Take `O=C1CCCN1C(=O)NCCCN1CC=C(c2ccc(Cl)c(Cl)c2)CC1` [Compound (c)]: in series [2] (setting [5]), the “deethylation activity, ratio to control” value was 1.99; the “demethylation activity, ratio” value came out at 1.61; the “depropylation activity, ratio” value amounted to 2.20. In series [2] (setting [6]), the “deethylation activity (7-alkoxycumarin-O-dialkylase)” value is 2.29 ± 0.18 nmol/min/mg of microsome protein, the “demethylation activity (7-alkoxycumarin-O-dialkylase)” value is 1.83 ± 0.19 nmol/min/mg of microsome protein and the “depropylation activity (7-alkoxycumarin-O-dialkylase)” value is 0.99 ± 0.55 nmol/min/mg of microsome protein. Besides, in series [2] (mouse liver, three days), the “enzyme induction (in words)” value is given as “carcinogenic enzyme induction of β-naphthoflavone type (3-methylcholanthrene type)”. In series [2] (setting [7]), the “increase in deethylation and depropylation activities” value was 1.99-2.20 times; the “increase in demethylation activity” value amounted to 1.61 times.
Take `O=c1cc(-c2ccccc2)oc2ccc3ccccc3c12` [β-naphtoflavone, β-naphthoflavone]: in series [2] (mouse, in vivo, ip, 100 mg/kg), the “deethylation activity (7-alkoxycumarin-O-dialkylase)” value is listed as 5.26 ± 0.28 nmol/min/mg of microsome protein, the “demethylation activity (7-alkoxycumarin-O-dialkylase)” value was 1.94 ± 0.08 nmol/min/mg of microsome protein and the “depropylation activity (7-alkoxycumarin-O-dialkylase)” value is recorded as 2.97 ± 0.20 nmol/min/mg of microsome protein. Further, in series [2] (setting [4]), the “deethylation activity, ratio to control” value is given as 5.06; the “demethylation activity, ratio” value came out at 2.04; the “depropylation activity, ratio” value was 6.19.
In the case of “1-[3-{4-(3,4-dichlorophenyl)-piperidin-1-yl}propylcarbamoyl]-2-oxopyrrolidin [Compound (b)]”, the “injury (%) in pyramidal cell layer” value was found to be 44.0 ± 3.2% in series [1] (12.5 mg/kg i.p.), 28.1 ± 8.3% in series [1] (25.0 mg/kg i.p.) and 30.7 ± 3.9% in series [1] (50.0 mg/kg i.p.). Besides, the “inhibition (%) of injury” value in series [1] (12.5 mg/kg i.p.) is listed as “+2.8%”; in series [1] (25.0 mg/kg i.p.) it was “+38.0%”; in series [1] (50.0 mg/kg i.p.), “+32.1%”. In addition, the negative-log IC50 (pIC50) in series [3] was 4.64.
As for `CCC1(c2ccccc2)C(=O)NC(=O)NC1=O` [phenobalbital, phenobarbital], in series [2] (setting [5]), the “deethylation activity, ratio to control” value is 2.53; the “demethylation activity, ratio” value is reported as 2.29; the “depropylation activity, ratio” value stood at 2.20. In series [2] (setting [6]), the “deethylation activity (7-alkoxycumarin-O-dialkylase)” value was 2.63 ± 0.18 nmol/min/mg of microsome protein, the “demethylation activity (7-alkoxycumarin-O-dialkylase)” value is recorded as 2.18 ± 0.13 nmol/min/mg of microsome protein and the “depropylation activity (7-alkoxycumarin-O-dialkylase)” value was 1.06 ± 0.06 nmol/min/mg of microsome protein.
